Values of other authors as cited in article PMC10410440, “Preclinical PK investigation of a novel IDO1/TDO dual inhibitor—SHR9146 in mouse plasma and tissues by LC-MS/MS” (Frontiers in Oncology, 2023).

System: colon cancer (MC38) cells
Set-up: method as in earlier work
Conditions: SHR9146 combined with the PD-1 antibody vs single PD-1 antibody or SHR9146, and vs PD-1 antibody combined with INCB024360 or NLG0919100; cited from earlier work

For `OCCn1cc(-c2ccc(N3CCC([C@H]4c5c(F)cccc5-c5cncn54)CC3)cc2)cn1` [SHR9146], the “inhibitory effect on colon cancer (MC38) cells” value is listed as “significantly better inhibitory effect”.
